Columns and labels:
Mus musculus = experiment: In vivo photosensitizing efficacy in RIF cells of C3H mouse at 1 umol/kg 90 days post-dose; format: functional
RIF-1 = experiment: Photosensitizing efficacy in RIF cells at 0.6-2.5 uM and light dose of 0-10 J/cm2 by MTT assay; format: functional, cell-based; conditions: Mus musculus

Question: Which Activity (Mus musculus) does the source give for CC[C@H]1c2cc3nc4c(c5[nH]c(cc6[nH]c(cc(n2)[C@@H]1C)c(C(C)NCc1cc(C(F)(F)F)cc(C(F)(F)F)c1)c6C)[C@@H](C)[C@@H]5CCC(=O)OC)C(=O)N(Cc1cc(C(F)(F)F)cc(C(F)(F)F)c1)C(=O)C4=C3C (some centres not stated) here?
Answer: Its Activity is 60%.

Question: What about the Activity (RIF-1) of the same compound?
Answer: The Activity was “Dose-dependent effect”.

Reference: ChEMBL document CHEMBL1138160, “In vivo stability and photodynamic efficacy of fluorinated bacteriopurpurinimides derived from bacteriochlorophyll-a” (2006)
